For the assay, the target named is T1, human mAChR M4 (Homo sapiens, UniProt P08173).
T1 construct: expressed in transfected cells; host or cells: CHO-K1 (ATCC), co-transfected with chimeric G protein Gqi5
T1 sequence (P08173 1-479): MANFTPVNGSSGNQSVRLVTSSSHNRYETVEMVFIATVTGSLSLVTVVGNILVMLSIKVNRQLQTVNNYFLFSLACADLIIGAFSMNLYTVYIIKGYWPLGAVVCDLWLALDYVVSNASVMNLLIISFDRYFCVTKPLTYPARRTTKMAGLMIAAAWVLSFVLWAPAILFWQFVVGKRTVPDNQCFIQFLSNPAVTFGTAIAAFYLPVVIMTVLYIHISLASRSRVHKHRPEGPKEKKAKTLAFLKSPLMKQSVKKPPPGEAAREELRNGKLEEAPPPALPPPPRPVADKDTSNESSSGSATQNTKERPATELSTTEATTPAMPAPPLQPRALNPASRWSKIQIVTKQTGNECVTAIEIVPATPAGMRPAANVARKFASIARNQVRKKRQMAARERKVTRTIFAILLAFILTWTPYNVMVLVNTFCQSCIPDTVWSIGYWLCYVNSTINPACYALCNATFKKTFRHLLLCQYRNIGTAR
The experiment in a line: mAChR M4 cell-based functional assay (calcium flux, antagonism of EC80 acetylcholine response, M4/Gqi5/CHO-K1 cells). Conditions: for remaining activity at 30 µM: CHO-K1, % ACh maximum at 30 μM, read-out: Human M4 Emin; for IC50: decrease of the response elicited by an EC80 concentration of acetylcholine, CHO-K1 cells, Gqi5; for Human M4 Emin: % ACh maximum at 30 μM. How it is done:
Human or rat M4 cDNA, along with the chimeric G protein Gqi5, were transfected into Chinese hamster ovary (CHO-K1) cells purchased from the American Type Culture Collection using Lipofectamine2000. M4/Gqi5/CHO cells were grown in Ham's F-12 medium containing 10% heat-inactivated fetal bovine serum (FBS), 20 mM HEPES, 500 μg/mL G418 sulfate, and 200 μg/mL Hygromycin B.
For high throughput measurement of agonist-evoked increases in intracellular calcium, CHO-K1 cells stably expressing muscarinic receptors were plated in growth medium lacking G418 and hygromycin at 15,000 cells/20 μL/well in Greiner 384-well black-walled, tissue culture (TC)-treated, clear-bottom plates (VWR). Cells were incubated overnight at 37° C. and 5% CO2. The next day, cells were washed using an ELX 405 (BioTek) with assay buffer; the final volume was then aspirated to 20 μL. Next, 20 μL of a 2.3 μM stock of Fluo-4/acetoxymethyl ester (Invitrogen, Carlsbad, CA), prepared as a 2.3 mM stock in DMSO and mixed in a 1:1 ratio with 10% (w/v) Pluronic F-127 and diluted in assay buffer, was added to the wells and the cell plates were incubated for 50 min at 37° C. and 5% CO2. Dye was removed by washing with the ELX 405 and the final volume was aspirated to 20 μL. Compound master plates were formatted in a 10-point concentration-response curve (CRC) format (1:3 dilutions) in 100% DMSO with a starting concentration of 10 or 1 mM using a BRAVO liquid handler (Agilent). Test compound CRCs were then transferred to daughter plates (240 nL) using the Echo acoustic plate reformatter (Labcyte, Sunnyvale, CA) and then diluted into assay buffer (40 μL) to a 2× stock using a Thermo Fisher Combi (Thermo Fisher Scientific, Waltham, MA).
Calcium flux was measured using the Functional Drug Screening System (FDSS) 6000 or 7000 (Hamamatsu Corporation, Tokyo, Japan) as an increase in the fluorescent static ratio. Compounds were applied to cells (20 μL, 2×) using the automated system of the FDSS at 2 seconds into the protocol and the data were collected at 1 Hz. At 143 s, 10 μL of an EC20 concentration of the muscarinic receptor agonist acetylcholine was added (5×), followed by the addition of 12 μL of an EC80 concentration of acetylcholine at the 268 s time point (5×). Agonist activity was analyzed as a concentration-dependent increase in calcium mobilization upon compound addition. Positive allosteric modulator activity was analyzed as a concentration-dependent increase in the EC20 acetylcholine response. Antagonist activity was analyzed as a concentration-dependent decrease in the EC80 acetylcholine response; for the purposes of the tables herein, an IC50 (inhibitory concentration 50) was calculated as a concentration-dependent decrease of the response elicited by an EC80 concentration of acetylcholine. Concentration-response curves were generated using a four-parameter logistical equation in XLFit curve fitting software (IDBS, Bridgewater, NJ) for Excel (Microsoft, Redmond, WA) or Prism (GraphPad Software, Inc., San Diego, CA) or the Dotmatics software platform (Dotmatics, Bishop's Stortford, UK). […]
Compounds were synthesized as described above. Activity (IC50 and Emin) was determined in the mAChR M4 cell-based functional assay as described above and the data are shown in Table 2.

These results are taken from US20240109873A1, “ANTAGONISTS OF THE MUSCARINIC ACETYLCHOLINE RECEPTOR M4” (Vanderbilt University, priority 2020, published 2024).

A word on the IC50: it is the concentration needed to halve the response being measured. For `[2H]C1([2H])CC(C([2H])([2H])N2C[C@H]3C[C@H](Nc4ccc(-c5cnccc5C(F)(F)F)nn4)C[C@@]3(C)C2)CC([2H])([2H])O1` (racemic) [Compound 27, (3aR,5S,6aS)-3a-methyl-2-((tetrahydro-2H-pyran-4-yl-2,2,6,6-d4)methyl-d2)-N-(6-(4-(trifluoromethyl)pyridin-3-yl)pyridazin-3-yl)octahydrocyclopenta[c]pyrrol-5-amine and (3aS,5R,6aR)-3a-methyl-2-((tetrahydro-2H-pyran-4-yl-2,2,6,6-d4)methyl-d2)-N-(6-(4-(trifluoromethyl)pyridin-3-yl)pyridazin-3-yl)octahydrocyclopenta[c]pyrrol-5-amine], the remaining activity at 30 µM came out at 3% and the IC50 is 3.2 nM.

Regarding `[2H]C([2H])(N1C[C@H]2C[C@H](Nc3ccc(-c4cnccc4C(F)(F)F)nn3)C[C@H]2C1)[C@]12CCC[C@H]1OCC2` (racemic) [Compound 29, (3aR,5s,6aS)-2-(((3aR,6aR)-hexahydro-3aH-cyclopenta[b]furan-3a-yl)methyl-d2)-N-(6-(4-(trifluoromethyl)pyridin-3-yl)pyridazin-3-yl)octahydrocyclopenta[c]pyrrol-5-amine and (3aR,5s,6aS)-2-(((3aS,6aS)-hexahydro-3aH-cyclopenta[b]furan-3a-yl)methyl-d2)-N-(6-(4-(trifluoromethyl)pyridin-3-yl)pyridazin-3-yl)octahydrocyclopenta[c]pyrrol-5-amine], the remaining activity at 30 µM was determined as 4% and the IC50 was 44 nM.

As for `[2H]C([2H])(N1C[C@H]2C[C@H](Nc3ccc(-c4cnccc4C(F)(F)F)nn3)C[C@H]2C1)[C@@]12CCCCC[C@H]1OCC2` (racemic) [Compound 30, (3aR,5s,6aS)-2-(((3aS,8aR)-octabydro-3aH-cyclohepta[b]furan-3a-yl)methyl-d2)-N-(6-(4-(trifluoromethyl)pyridin-3-yl)pyridazin-3-yl)octahydrocyclopenta[c]pyrrol-5-amine and (3aR,5s,6aS)-2-(((3aR,8aS)-octahydro-3aH-cyclohepta[b]furan-3a-yl)methyl-d2)-N-(6-(4-(trifluoromethyl)pyridin-3-yl)pyridazin-3-yl)octahydrocyclopenta[c]pyrrol-5-amine], the remaining activity at 30 µM was 31% and the IC50 was determined as 4000 nM.

For `[2H]C([2H])(C1CCOCC1)N1C[C@@H]2C[C@@H](Nc3ccc(-c4cccnc4C(F)(F)F)nn3)C[C@]2(C)C1` (racemic) [Compound 56, (3aR,5S,6aS)-3a-methyl-2-((tetrahydro-2H-pyran-4-yl)methyl-d2)-N-(6-(2-(trifluoromethyl)pyridin-3-yl)pyridazin-3-yl)octahydrocyclopenta[c]pyrrol-5-amine and (3aS,5R,6aR)-3a-methyl-2-((tetrahydro-2H-pyran-4-yl)methyl-d2)-N-(6-(2-(trifluoromethyl)pyridin-3-yl)pyridazin-3-yl)octahydrocyclopenta[c]pyrrol-5-amine], the remaining activity at 30 µM was determined as 2% and the IC50 is 1.9 nM.

Consider `[2H]C1([2H])CC(C([2H])([2H])N2C[C@H]3C[C@H](Nc4ccc(-c5cccnc5C(F)(F)F)nn4)C[C@@]3(C)C2)CC([2H])([2H])O1` (racemic) [Compound 57, (3aR,5S,6aS)-3a-methyl-2-((tetrahydro-2H-pyran-4-yl-2,2,6,6-d4)methyl-d2)-N-(6-(2-(trifluoromethyl)pyridin-3-yl)pyridazin-3-yl)octahydrocyclopenta[c]pyrrol-5-amine and (3aS,5R,6aR)-3a-methyl-2-((tetrahydro-2H-pyran-4-yl-2,2,6,6-d4)methyl-d2)-N-(6-(2-(trifluoromethyl)pyridin-3-yl)pyridazin-3-yl)octahydrocyclopenta[c]pyrrol-5-amine], for which the remaining activity at 30 µM worked out at 3% and the IC50 came to 1.5 nM.

On to `[2H]C([2H])(C1CCOC(C)(C)C1)N1C[C@H]2C[C@H](Nc3ccc(-c4cnccc4C(F)(F)F)nn3)C[C@H]2C1` (single isomer, unassigned) [Compound 58], for which the “Human M4 Emin” value was found to be 3% and the IC50 was found to be 9.4 nM.

As for `[2H]C([2H])(C1CCOC(C)(C)C1)N1C[C@H]2C[C@H](Nc3ccc(-c4cnccc4C(F)(F)F)nn3)C[C@H]2C1` (single isomer, unassigned) [Compound 59], the “Human M4 Emin” value came out at 3% and the IC50 came out at 1 nM.

Turning to `FC(F)(F)c1ccncc1-c1ccc(N[C@H]2C[C@@H]3CN(CC4CCOCC4)C[C@@H]3C2)nn1` [Compound 1, (3aR,5s,6aS)-2-((tetrahydro-2H-pyran-4-yl)methyl)-N-(6-(4-(trifluoromethyl)pyridin-3-yl)pyridazin-3-yl)octahydrocyclopenta[c]pyrrol-5-amine], the remaining activity at 30 µM was found to be 4% and the IC50 was determined as 0.28 nM.

In the case of `[2H]C([2H])(C1CCOCC1)N1C[C@H]2C[C@H](Nc3ccc(-c4cnccc4C(F)(F)F)nn3)C[C@H]2C1` [Compound 2, (3aR,5s,6aS)-2-((tetrahydro-2H-pyran-4-yl)methyl-d2)-N-(6-(4-(trifluoromethyl)pyridin-3-yl)pyridazin-3-yl)octahydrocyclopenta[c]pyrrol-5-amine], the remaining activity at 30 µM was 3% and the IC50 stood at 0.41 nM.

In the case of `[2H]C([2H])(C1CCOCC1(C)C)N1C[C@H]2C[C@H](Nc3ccc(-c4cnccc4C(F)(F)F)nn3)C[C@H]2C1` (stereo partly drawn) [Compound 3, (3aR,5s,6aS)-2-((3,3-dimethyltetrahydro-2H-pyran-4-yl)methyl-d2)-N-(6-(4-(trifluoromethyl)pyridin-3-yl)pyridazin-3-yl)octahydrocyclopenta[c]pyrrol-5-amine], the remaining activity at 30 µM was determined as 2% and the IC50 is 4.6 nM.

As for `[2H]C([2H])(N1C[C@H]2C[C@H](Nc3ccc(-c4cnccc4C(F)(F)F)nn3)C[C@H]2C1)C1(C)CCOCC1` [Compound 4, (3aR,5s,6aS)-2-((4-methyltetrahydro-2H-pyran-4-yl)methyl-d2)-N-(6-(4-(trifluoromethyl)pyridin-3-yl)pyridazin-3-yl)octahydrocyclopenta[c]pyrrol-5-amine], the remaining activity at 30 µM turned out to be 2% and the half-maximal inhibitory concentration (IC50) is 15 nM.

Consider `[2H]C([2H])([C@H]1COCCO1)N1C[C@H]2C[C@H](Nc3ccc(-c4cnccc4C(F)(F)F)nn3)C[C@H]2C1` [Compound 5, (3aR,5s,6aS)-2-(((S)-1,4-dioxan-2-yl)methyl-d2)-N-(6-(4-(trifluoromethyl)pyridin-3-yl)pyridazin-3-yl)octahydrocyclopenta[c]pyrrol-5-amine], for which the remaining activity at 30 µM came to 2% and the IC50 turned out to be 0.91 nM.

For the compound `[2H]C([2H])([C@@H]1COCCO1)N1C[C@H]2C[C@H](Nc3ccc(-c4cnccc4C(F)(F)F)nn3)C[C@H]2C1` [Compound 6, (3aR,5s,6aS)-2-(((R)-1,4-dioxan-2-yl)methyl-d2)-N-(6-(4-(trifluoromethyl)pyridin-3-yl)pyridazin-3-yl)octahydrocyclopenta[c]pyrrol-5-amine], the remaining activity at 30 µM came to 3% and the concentration for half-maximal inhibition (IC50) is 33 nM.
